In patent publication US10000476B2, “Pyridone derivative, pharmaceutical containing the same and methods of use thereof” (KAKEN PHARMACEUTICAL CO., LTD., priority 2011, dated 2018) one finds IC50 data, which are given here for 51 compounds.

pIC50: −log10 of the molar value. Where only a bound is given, the exact number is not on record here.

The target of the assay is TACE (Homo sapiens (Human), UniProt P78536). The assay is described as follows: TACE inhibition test (in vitro). It counts as biochemical. As to conditions: fluorescent synthetic substrate, 37° C., 1.5 hours. As for the experimental part: The nucleotide sequence of TACE has been reported by Moss et al. (Moss, M. L. et al., Nature 1997, 385, 733-736). Accordingly, the cDNA of TACE was obtained according to the prescribed method from THP-1 cells or the like, and then incorporated the cDNA into an expression vector. Next, this vector was transformed into mammalian cells or insect cells, and TACE expression was obtained.
TACE, sequence (P78536 215-824): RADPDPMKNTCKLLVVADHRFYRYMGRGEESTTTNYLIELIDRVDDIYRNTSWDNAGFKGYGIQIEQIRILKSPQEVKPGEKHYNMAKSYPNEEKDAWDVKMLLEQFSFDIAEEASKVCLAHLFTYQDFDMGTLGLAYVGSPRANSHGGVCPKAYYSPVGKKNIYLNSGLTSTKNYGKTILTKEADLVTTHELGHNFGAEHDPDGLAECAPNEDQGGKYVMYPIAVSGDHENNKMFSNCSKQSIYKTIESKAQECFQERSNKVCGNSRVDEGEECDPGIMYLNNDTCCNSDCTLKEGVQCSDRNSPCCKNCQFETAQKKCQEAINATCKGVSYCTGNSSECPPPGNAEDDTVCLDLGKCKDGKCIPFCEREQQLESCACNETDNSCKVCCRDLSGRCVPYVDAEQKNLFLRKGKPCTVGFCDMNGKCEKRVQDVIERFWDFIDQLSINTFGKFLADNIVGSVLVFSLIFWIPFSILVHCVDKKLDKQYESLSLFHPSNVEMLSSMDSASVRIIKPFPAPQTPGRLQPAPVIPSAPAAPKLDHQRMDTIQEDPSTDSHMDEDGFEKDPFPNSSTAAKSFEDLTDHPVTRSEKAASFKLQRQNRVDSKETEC
The TACE inhibition test was carried out by measuring TACE activity in the presence and the absence of the test substance using the thus-obtained TACE as an enzyme, and a fluorescent synthetic substrate Nma(N-methylanthranilic acid)-Leu-Ala-Gln-Ala-Val-Arg-Ser-Ser-Lys(Dnp(dinitrophenyl))-D-Arg-NH2 (SEQ ID NO: 1) including the TACE-cleaved sequence of a membrane-bound TNF as a substrate. The TACE inhibition test method is shown below.
Namely, 90 μL of an enzyme solution prepared with an assay buffer A (50 mM tris-hydrochloric acid buffer (pH 7.5) including 200 mM sodium chloride, 5 mM calcium chloride, 10 μM zinc sulfate, and 2 mg/mL bovine serum albumin) and 90 μL of a fluorescent synthetic substrate prepared with an assay buffer B (50 mM tris-hydrochloric acid buffer (pH 7.5) including 200 mM sodium chloride, 5 mM calcium chloride, 10 μM zinc sulfate, and 0.05% PLURONIC F-68) were mixed together, and reacted at 37° C. for 1.5 hours. Enzyme activity was then determined by measuring with a fluorescence intensity meter (Labsystems, Fluoroskan Ascent) at an excitation wavelength of 355 nm and a measurement wavelength of 460 nm.
From the enzyme activity in the presence or the absence of the test substance, the inhibition rate was determined, and the 50% inhibitiory concentration (IC50) of the test substance was calculated.
Consider `O=C1NC(=O)C(Cn2ccccc2=O)(c2ccc(F)c(F)c2)N1` (stereo not drawn) [Compound I-155], for which the pIC50 is more than 7.00.

As to `Cc1cccn(CC2(c3ccc4sccc4c3)NC(=O)NC2=O)c1=O` (stereo not drawn) [Compound I-23, 5-(benzo[b]thiophen-5-yl)-5-[(3-methyl-2-oxopyridin-1(2H)-yl)methyl]imidazolidine-2,4-dione], the pIC50 was more than 7.00.

Compound `COc1cc(C2(Cn3cccc(C)c3=O)NC(=O)NC2=O)cc(F)c1F` (stereo not drawn) [Compound I-127] showed a pIC50 of more than 7.00.

`Cc1cccn(CC2(c3ccc4ccccc4c3)NC(=O)NC2=O)c1=O` (stereo not drawn) [Compound I-56] had a pIC50 of more than 7.00.

As to `Cc1cccn(CC2(c3ccc(F)cc3F)NC(=O)NC2=O)c1=O` (stereo not drawn) [Compound I-61], the pIC50 was 6.00 to 7.00.

In turn, `CCCc1ccc(C2(Cn3cccc(C)c3=O)NC(=O)NC2=O)cc1` (stereo not drawn) [Compound I-45, 5-[(3-methyl-2-oxopyridin-1(2H)-yl)methyl]-5-(4-propylphenyl)imidazolidine-2,4-dione] had a pIC50 of more than 7.00.

For `N#Cc1ccc(C2(Cn3cccc(C(F)(F)F)c3=O)NC(=O)NC2=O)cc1` (stereo not drawn) [Compound I-142], the pIC50 is more than 7.00.

The compound `COc1cc(C2(Cn3cccc(C)c3=O)NC(=O)NC2=O)ccc1F` (stereo not drawn) [Compound I-12, 5-(4-fluoro-3-methoxyphenyl)-5-[(3-methyl-2-oxopyridin-1(2H)-yl)methyl]imidazolidine-2,4-dione] gave a pIC50 of more than 7.00.

The compound `O=C1NC(=O)C(Cn2ccccc2=O)(c2cc(F)c(F)c(F)c2)N1` (stereo not drawn) [Compound I-157] showed a pIC50 of more than 7.00.

With `Cc1cccn(CC2(c3cccc(OCc4ccccc4)c3)NC(=O)NC2=O)c1=O` (stereo not drawn) [Compound I-58], the pIC50 was more than 7.00.

In turn, `O=C1NC(=O)C(Cn2cccc(C(F)(F)F)c2=O)(c2ccccc2)N1` (stereo not drawn) [Compound I-140] showed a pIC50 of more than 7.00.

`Cc1cccn(CC2(c3ccc(OC(F)(F)F)cc3)NC(=O)NC2=O)c1=O` (stereo not drawn) [Compound I-79] showed a pIC50 of more than 7.00.

In turn, `COc1ccc(C2(Cn3cccc(C)c3=O)NC(=O)NC2=O)c(OC)c1` (stereo not drawn) [Compound I-18, 5-(2,4-dimethoxyphenyl)-5-[(3-methyl-2-oxopyridin-1(2H)-yl)methyl]imidazolidine-2,4-dione] had a pIC50 of more than 7.00.

In turn, `COc1cccc(Oc2ccc(C3(Cn4cccc(C)c4=O)NC(=O)NC3=O)cc2)c1` (stereo not drawn) [Compound I-83] had a pIC50 of more than 7.00.

Consider `C=C(C)c1cccn(CC2(c3ccc(OC)cc3)NC(=O)NC2=O)c1=O` (stereo not drawn) [Compound I-144], for which the pIC50 was 6.00 to 7.00.

For the compound `Cc1cccn(CC2(c3cc(F)c(F)cc3F)NC(=O)NC2=O)c1=O` (stereo not drawn) [Compound I-29, 5-[(3-methyl-2-oxopyridin-1(2H)-yl)methyl]-5-(2,4,5-trifluorophenyl)imidazolidine-2,4-dione], the pIC50 is more than 7.00.

In turn, `Cc1cccn(CC2(c3cccc(Br)c3)NC(=O)NC2=O)c1=O` (stereo not drawn) [Compound I-57] gave a pIC50 of more than 7.00.

For `Cc1cccn(CC2(c3ccncc3)NC(=O)NC2=O)c1=O` (stereo not drawn) [Compound I-55], the pIC50 is more than 7.00.

The compound `Cc1cccn(CC2(c3ccc(Oc4cccc(F)c4)c(F)c3)NC(=O)NC2=O)c1=O` (stereo not drawn) [Compound I-112] had a pIC50 of more than 7.00.

In turn, `Cc1cccn(CC2(c3ccc4c(c3)OCCO4)NC(=O)NC2=O)c1=O` (stereo not drawn) [Compound I-59] gave a pIC50 of more than 7.00.

`O=C1NC(=O)C(Cn2cccc(Br)c2=O)(c2ccc(Cc3ccccc3)cc2)N1` (stereo not drawn) [Compound I-149] had a pIC50 of more than 7.00.

`COc1ccc(-c2ccc(C3(Cn4cccc(C)c4=O)NC(=O)NC3=O)cc2)cc1` (stereo not drawn) [Compound I-72] showed a negative logarithm of the IC50 (pIC50) of more than 7.00.

The compound `O=C1NC(=O)C(Cn2cccc(F)c2=O)(c2ccc(F)cc2)N1` (stereo not drawn) [Compound I-48, 5-[(3-fluoro-2-oxopyridin-1(2H)-yl)methyl]-5-(4-fluorophenyl)-imidazolidine-2,4-dione] had a pIC50 of more than 7.00.

`O=C1NC(=O)C(Cn2cccc(Cl)c2=O)(c2ccccc2)N1` (stereo not drawn) [Compound I-50, 5-[(3-chloro-2-oxopyridin-1(2H)-yl)methyl]-5-phenylimidazolidine-2,4-dione] gave a negative logarithm of the IC50 (pIC50) of more than 7.00.

On to `Cc1cccn(CC2(c3ccc(S(C)(=O)=O)cc3)NC(=O)NC2=O)c1=O` (stereo not drawn) [Compound I-25, 5-[(3-methyl-2-oxopyridin-1(2H)-yl)methyl]-5-[4-(methylsulfonyl)phenyl]imidazolidine-2,4-dione], for which the pIC50 is more than 7.00.

Regarding `Cc1cccn(CC2(c3ccc(CCc4ccccc4)cc3)NC(=O)NC2=O)c1=O` (stereo not drawn) [Compound I-107], the negative logarithm of the IC50 (pIC50) is more than 7.00.

In the case of `Cc1cccn(CC2(c3ccc(OC(F)F)cc3)NC(=O)NC2=O)c1=O` (stereo not drawn) [Compound I-78], the pIC50 is more than 7.00.

As for `O=C1NC(=O)C(Cn2cccc(Cl)c2=O)(c2ccc(Cc3ccccc3)cc2)N1` (stereo not drawn) [Compound I-150], the pIC50 is more than 7.00.

As to `Cc1cccn(CC2(c3ccc4c(c3)CCCO4)NC(=O)NC2=O)c1=O` (stereo not drawn) [Compound I-26, 5-(chroman-6-yl)-5-[(3-methyl-2-oxopyridin-1(2H)-yl)methyl]imidazolidine-2,4-dione], the pIC50 was more than 7.00.

Compound `Cc1cc(C2(Cn3cccc(C)c3=O)NC(=O)NC2=O)ccc1OC1CCCCC1` (stereo not drawn) [Compound I-131] gave a pIC50 of more than 7.00.

For the compound `Cc1cccn(CC2(c3ccc(F)cc3)NC(=O)NC2=O)c1=O` (stereo not drawn) [Compound I-15, 5-(4-fluorophenyl)-5-[(3-methyl-2-oxopyridin-1(2H)-yl)methyl]imidazolidine-2,4-dione], the negative logarithm of the IC50 (pIC50) was more than 7.00.

Turning to `Cc1cccn(CC2(c3ccsc3)NC(=O)NC2=O)c1=O` (stereo not drawn) [Compound I-5, 5-[(3-methyl-2-oxopyridin-1(2H)-yl)methyl]-5-(thiophen-3-yl)imidazolidine-2,4-dione], the pIC50 was more than 7.00.

The compound `COc1cccc(-c2ccc(C3(Cn4cccc(C)c4=O)NC(=O)NC3=O)cc2)c1` (stereo not drawn) [Compound I-73] showed a pIC50 of more than 7.00.

`N#Cc1ccc(C2(Cn3cccc(F)c3=O)NC(=O)NC2=O)cc1` (stereo not drawn) [Compound I-134] had a pIC50 of more than 7.00.

Turning to `O=C1NC(=O)C(Cn2cccc(F)c2=O)(c2ccc(F)c(F)c2)N1` (stereo not drawn) [Compound I-145], the negative-log IC50 (pIC50) is more than 7.00.

As for `Cc1cccn(CC2(c3ccc(C#N)cc3)NC(=O)NC2=O)c1=O` (stereo not drawn) [Compound I-3, 4-{4-[(3-methyl-2-oxopyridin-1(2H)-yl)methyl]-2,5-dioxoimidazolidine-4-yl}benzonitrile], the pIC50 is more than 7.00.

`Cc1cccn(CC2(c3cccc(F)c3)NC(=O)NC2=O)c1=O` (stereo not drawn) [Compound I-28, 5-(3-fluorophenyl)-5-[(3-methyl-2-oxopyridin-1(2H)-yl)methyl]imidazolidine-2,4-dione] showed a pIC50 of more than 7.00.

On to `O=C1NC(=O)C(Cn2cccc(Cl)c2=O)(c2ccc(F)c(F)c2)N1` (stereo not drawn) [Compound I-146], for which the pIC50 was more than 7.00.

Consider `Cc1cccn(CC2(c3cccnc3)NC(=O)NC2=O)c1=O` (stereo not drawn) [Compound I-8, 5-[(3-methyl-2-oxopyridin-1(2H)-yl)methyl]-5-(pyridin-3-yl)imidazolidine-2,4-dione], for which the pIC50 is more than 7.00.

In the case of `Cc1cccn(CC2(c3ccc(-c4ccc(F)cc4)cc3)NC(=O)NC2=O)c1=O` (stereo not drawn) [Compound I-75], the pIC50 is more than 7.00.

`COc1ccc(C2(Cn3cccc(C)c3=O)NC(=O)NC2=O)cc1` (stereo not drawn) [Compound I-2, 5-(4-methoxyphenyl)-5-[(3-methyl-2-oxopyridin-1(2H)-yl)methyl]imidazolidine-2,4-dione] had a pIC50 of more than 7.00.

Consider `Cc1cccn(CC2(c3ccc(Oc4cc(F)cc(F)c4)cc3)NC(=O)NC2=O)c1=O` (stereo not drawn) [Compound I-99], for which the pIC50 is more than 7.00.

`Cc1cccn(CC2(c3cccc(C#CC(C)(C)C)c3)NC(=O)NC2=O)c1=O` (stereo not drawn) [Compound I-63] showed a pIC50 of 6.00 to 7.00.

`COc1ccncc1-c1ccc(C2(Cn3cccc(C)c3=O)NC(=O)NC2=O)cc1` (stereo not drawn) [Compound I-91] had a pIC50 of more than 7.00.

Compound `O=C1NC(=O)C(Cn2cccc(F)c2=O)(c2ccc(-c3ccccc3)cc2)N1` (stereo not drawn) [Compound I-49, 5-([1,1′-biphenyl]-4-yl)-5-[(3-fluoro-2-oxopyridin-1(2H)-yl)methyl]imidazolidine-2,4-dione] had a pIC50 of more than 7.00.

`O=C1NC(=O)C(Cn2ccccc2=O)(c2ccccc2)N1` (stereo not drawn) [Compound I-46, 5-[(2-oxopyridin-1(2H)-yl)methyl]-5-phenylimidazolidine-2,4-dione]: the pIC50 is more than 7.00.

As to `Cc1ccc(Oc2ccc(C3(Cn4cccc(C)c4=O)NC(=O)NC3=O)cc2)cc1` (stereo not drawn) [Compound I-34, 5-[(3-methyl-2-oxopyridin-1(2H)-yl)methyl]-5-[4-(p-tolyloxy)phenyl]imidazolidine-2,4-dione], the pIC50 was more than 7.00.

Compound `Cc1cccn(CC2(c3cccc(OC(F)(F)F)c3)NC(=O)NC2=O)c1=O` (stereo not drawn) [Compound I-67] had a negative logarithm of the IC50 (pIC50) of more than 7.00.

Consider `COc1cc(C)c(Cl)cc1C1(Cn2cccc(C)c2=O)NC(=O)NC1=O` (stereo not drawn) [Compound I-70], for which the pIC50 was 6.00 to 7.00.

For `Cc1cccn(CC2(c3ccc(C#Cc4ccccn4)cc3)NC(=O)NC2=O)c1=O` (stereo not drawn) [Compound I-110], the negative logarithm of the IC50 (pIC50) is more than 7.00.

Turning to `O=C1NC(=O)C(Cn2cccc(Br)c2=O)(c2ccccc2)N1` (stereo not drawn) [Compound I-139], the pIC50 is more than 7.00.

For orientation: pIC50 means −log10 of the IC50, conventionally taken in molar units. Read a low pIC50 as a high IC50.
